We go through 17 compounds from patent US10669272B2, “Substituted naphthyridinone compounds useful as T cell activators” (BRISTOL-MYERS SQUIBB COMPANY, priority 2018, dated 2020).

Read-outs that look alike come from different tables or passages of the source.

In one assay the target is T1, human DGKα (Homo sapiens, UniProt P23743).
T1 construct: TVMV protease cleavage site (C); Hexa-His (C); made in house; host or cells: Sf9 insect cells (baculovirus, Bac-to-Bac)
The experiment in a line: DGKα LIPGLO assay (extruded liposome substrate), in vitro DGK inhibition. The format is biochemical. The conditions noted are these: read-out: DGKa LIPGLO IC50.

The next assay has as its target T2, human DGKζ (Homo sapiens, UniProt Q13574).
T2 construct: TVMV protease cleavage site (C); Hexa-His (C); made in house; host or cells: Sf9 insect cells (baculovirus, Bac-to-Bac)
The experiment in a line: DGKζ LIPGLO assay (extruded liposome substrate), in vitro DGK inhibition. In kind it is biochemical. The following applies: read-out: DGKz LIPGLO IC50.

The test system of a further assay is naïve human CD8 T cells. The experiment in a line: Human CD8 T cells IFN-γ assay.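 Also: Naïve human CD8 T cells stimulated with plate-bound anti-CD3 and soluble anti-CD28, IFN-γ in supernatant quantified by AlphaLISA and converted to pg/mL.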 The format is cell-based. The following applies: Homo sapiens, T-cell, 20 h, normalized to 3 μM reference compound with anti-CD3 plus anti-CD28 as 100% activation; read-out: HuCD8 INFG Normalized EC50.
In assay [1] the test system is OT-1 CD8+ T cells with SIINFEKL-loaded MC38 tumor cells. The experiment in a line: Murine cytotoxic T lymphocyte assay (IFN-γ, OT-1 CTL with MC38 tumor cells). The following applies: read-out: msCTL INFg IC50. The format is cell-based, mouse. From the text:
5. Murine Cytotoxic T Lymphocyte Assay
An antigen-specific cytolytic T-cell (CTL) assay was developed to evaluate functionally the ability of DGKα and DGKζ inhibitors to enhance effector T cell mediated tumor cell killing activity. CD8+ T-cells isolated from the OT-1 transgenic mouse recognize antigen presenting cells, MC38, that present the ovalbumin derived peptide […]. Recognition of the cognate antigen initiates the cytolytic activity of the OT-1 antigen-specific CD8+ T cells.
Functional CTL cells were generated as follows: OT-1 splenocytes from 8-12 week old mice were isolated and expanded in the presence of the […] peptide at 1 μg/mL and mIL2 at 10 U/mL. After three days, fresh media with […] was added. On day 5 of the expansion, the CD8+ T cells were isolated and ready for use. Activated CTL cells may be stored frozen for 6 months. Separately, one million MC38 tumor cells were pulsed with 1 μg/mL of […]-OVA peptide for 3 hours at 37° C. The cells were washed (3×) with fresh media to remove excess peptide. Finally, CTL cells that were pretreated with DGK inhibitors for 1 hour in a 96-well U bottom plate were combined with the antigen loaded MC38 tumor cells at a 1:10 ratio. The cells were then spun at 700 rpm for 5 min and placed in an incubator overnight at 37° C. After 24 hours, the supernatant was collected for analysis of IFN-γ cytokine levels by AlphaLisa purchased from Perkin Elmer.

In another assay the test system is Human venous whole blood. Put plainly: Human whole blood IFN-γ assay.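 Also: blood from healthy donors exposed to compound for 1 h before stimulation with anti-CD3 and anti-CD28 at 1 µg/mL each, IFN-γ quantified in supernatant by AlphaLISA.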 The conditions noted are these: human whole blood, read-out: INFg Whole Blood Normalized Agonist EC50. The format is cell-based.
Setting [2] is: normalized to 3 μM reference compound with anti-CD3 plus anti-CD28 as 100% activation.
The mark [3] stands for this setting: Homo sapiens, 24 h, normalized to 3 μM reference compound with anti-CD3 plus anti-CD28 as 100% activation.
Setting [4] is: Homo sapiens, 24 h, anti-CD3 plus anti-CD28, 24 hours, 3 μM reference compound = 100% activation.
[5] abbreviates: Mus musculus, MC-38, murine CTL, IFN-γ.

T2 sequence (Q13574 with tags, fused parts or gaps isoform Q13574-4): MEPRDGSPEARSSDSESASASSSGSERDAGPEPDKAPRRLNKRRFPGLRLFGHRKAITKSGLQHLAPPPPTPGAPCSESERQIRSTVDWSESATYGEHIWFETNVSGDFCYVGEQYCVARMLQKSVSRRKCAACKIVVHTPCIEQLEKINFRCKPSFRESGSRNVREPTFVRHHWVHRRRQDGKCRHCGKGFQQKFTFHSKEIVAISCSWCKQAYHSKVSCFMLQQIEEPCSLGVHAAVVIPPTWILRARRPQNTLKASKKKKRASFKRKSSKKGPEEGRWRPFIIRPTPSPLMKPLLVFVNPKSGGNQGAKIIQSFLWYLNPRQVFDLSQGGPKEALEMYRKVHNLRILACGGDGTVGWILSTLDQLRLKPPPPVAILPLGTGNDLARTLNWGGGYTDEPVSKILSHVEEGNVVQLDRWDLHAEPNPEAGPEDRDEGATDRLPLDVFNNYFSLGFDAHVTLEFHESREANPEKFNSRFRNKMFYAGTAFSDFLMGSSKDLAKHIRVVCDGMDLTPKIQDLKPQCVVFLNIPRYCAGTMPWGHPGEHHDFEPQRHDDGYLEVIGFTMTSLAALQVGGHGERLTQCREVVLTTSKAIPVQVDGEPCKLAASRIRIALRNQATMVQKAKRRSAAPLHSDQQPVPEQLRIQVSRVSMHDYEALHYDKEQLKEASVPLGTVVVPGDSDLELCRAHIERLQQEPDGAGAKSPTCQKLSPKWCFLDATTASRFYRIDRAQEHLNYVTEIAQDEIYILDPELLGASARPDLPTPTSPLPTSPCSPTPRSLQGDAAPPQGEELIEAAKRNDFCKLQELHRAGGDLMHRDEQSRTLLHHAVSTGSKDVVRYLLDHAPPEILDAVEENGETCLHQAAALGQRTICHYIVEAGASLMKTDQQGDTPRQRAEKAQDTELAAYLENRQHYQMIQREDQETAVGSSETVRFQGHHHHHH
T1 sequence (P23743 with tags, fused parts or gaps): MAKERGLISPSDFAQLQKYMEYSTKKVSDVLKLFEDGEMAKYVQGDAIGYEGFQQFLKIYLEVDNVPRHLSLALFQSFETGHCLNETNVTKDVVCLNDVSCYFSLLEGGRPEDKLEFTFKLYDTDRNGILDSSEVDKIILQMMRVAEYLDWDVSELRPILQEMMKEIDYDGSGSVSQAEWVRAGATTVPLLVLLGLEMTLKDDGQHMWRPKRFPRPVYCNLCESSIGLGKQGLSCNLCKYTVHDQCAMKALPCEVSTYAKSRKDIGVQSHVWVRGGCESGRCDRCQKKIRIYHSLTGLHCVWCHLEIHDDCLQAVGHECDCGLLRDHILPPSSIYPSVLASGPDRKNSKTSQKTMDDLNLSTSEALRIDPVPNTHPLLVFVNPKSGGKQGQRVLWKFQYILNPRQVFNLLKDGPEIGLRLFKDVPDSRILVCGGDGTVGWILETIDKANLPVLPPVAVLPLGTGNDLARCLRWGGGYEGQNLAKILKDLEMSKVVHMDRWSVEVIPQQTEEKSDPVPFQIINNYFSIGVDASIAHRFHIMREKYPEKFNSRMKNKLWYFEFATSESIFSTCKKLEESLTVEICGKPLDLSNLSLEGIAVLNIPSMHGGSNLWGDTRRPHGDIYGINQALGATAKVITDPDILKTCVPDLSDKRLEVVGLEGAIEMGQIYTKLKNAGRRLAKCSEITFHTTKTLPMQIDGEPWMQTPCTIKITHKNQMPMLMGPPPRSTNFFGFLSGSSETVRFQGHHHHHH
Description for Human venous whole blood: Human Whole Blood IFN-γ Assay
Human venous whole blood (22.5 μL per well), obtained from healthy donors, was pre-treated with compounds for one hour at 37° C. in a humidified 95% air/5% CO2 incubator. The blood was stimulated with 2.5 μL anti-human CD3 and anti-CD28 mAb at a final concentration of 1 μg/mL each for 24 hours at 37° C. IFN-γ in the supernatants was measured using AlphLISA kit (Cat # AL217).

`CC1CN(c2cc(=O)n(C)c3ccc(C#N)nc23)CC(C)N1C(c1ccc(F)cc1)c1ccc(F)cc1` (centres unmarked) [Example 163, 8-(4-(bis(4-fluorophenyl)methyl)-3,5-dimethylpiperazin-1-yl)-5-methyl-6-oxo-5,6-dihydro-1,5-naphthyridine-2-carbonitrile]: the half-inhibitory concentration (IC50) (as a rule, the concentration at which inhibition is half-maximal) on human DGKα (liposome (LIPGLO) assay) was determined as 16 µM; on human DGKζ (liposome (LIPGLO) assay), 12 µM; in assay [1] (Mus musculus, MC-38), 2.1 µM. The EC50 (as a rule, the concentration giving half of the maximal effect) in the assay with naïve human CD8 T cells came out at 1.5 µM.

With `COC(=O)[C@@H]1CN(c2cc(=O)n(C)c3ccc(C#N)nc23)CCN1C(c1ccc(F)cc1)c1ccc(F)cc1` [Example 66, Methyl (S)-1-(bis(4-fluorophenyl)methyl)-4-(6-cyano-1-methyl-2-oxo-1,2-dihydro-1,5-naphthyridin-4-yl)piperazine-2-carboxylate], the IC50 at human DGKα (liposome (LIPGLO) assay) is 2.4 µM; at human DGKζ (liposome (LIPGLO) assay), 1.2 µM; in assay [1] (Mus musculus, MC-38), 0.066 µM. The EC50 with naïve human CD8 T cells turned out to be 0.16 µM.

For `COC(=O)C1CN(c2cc(=O)n(C)c3ccc(C#N)nc23)CCN1C(c1ccc(F)cc1)c1ccc(F)cc1OC` (single isomer, unassigned) [Example 71, Methyl 4-(6-cyano-1-methyl-2-oxo-1,2-dihydro-1,5-naphthyridin-4-yl)-1-((4-fluoro-2-methoxyphenyl)(4-fluorophenyl)methyl)piperazine-2-carboxylate], the IC50 on human DGKα (liposome (LIPGLO) assay) came out at 240 µM; on human DGKζ (liposome (LIPGLO) assay), 52 µM; in assay [1] it was 3.8 µM. Further, the concentration giving a half-maximal response (EC50) in the assay with Human venous whole blood (setting [2]) came out at 10 µM.

With `COc1cc(F)ccc1C(c1ccc(F)cc1)N1CCN(c2cc(=O)n(C)c3ccc(C#N)nc23)[C@@H](C)C1` (single isomer, unassigned) [Example 130], the figures for the IC50 (on human DGKα (liposome (LIPGLO) assay); on human DGKζ (liposome (LIPGLO) assay); in assay [1]) were 18 µM, 0.96 µM and 0.75 µM, respectively. The EC50 in the assay with Human venous whole blood (setting [2]) is 4 µM.

In the case of `COC(=O)C1CN(c2c([N+](=O)[O-])c(=O)n(C)c3ccc(C#N)nc23)CCN1C(c1ccc(F)cc1)c1ccc(F)cc1` (single isomer, unassigned) [Example 73, Methyl 1-(bis(4-fluorophenyl)methyl)-4-(6-cyano-1-methyl-3-nitro-2-oxo-1,2-dihydro-1,5-naphthyridin-4-yl)piperazine-2-carboxylate], the concentration for half-maximal inhibition (IC50) at human DGKα (liposome (LIPGLO) assay) was determined as 0.52 µM; at human DGKζ (liposome (LIPGLO) assay) it was 0.31 µM; in assay [1] (Mus musculus, MC-38), 0.15 µM. In addition, the EC50 in the assay on Human venous whole blood (setting [3]) was determined as 0.29 µM.

In the case of `Cn1c(=O)cc(N2CCN(C(c3ccc(F)cc3)c3ccc(F)cc3)C(C(C)(C)F)C2)c2nc(C#N)ccc21` (single isomer, unassigned) [Example 80, 8-(4-(bis(4-fluorophenyl)methyl)-3-(2-fluoropropan-2-yl)piperazin-1-yl)-5-methyl-6-oxo-5,6-dihydro-1,5-naphthyridine-2-carbonitrile], the half-maximal inhibitory concentration (IC50) came to 0.67 µM on human DGKα (liposome (LIPGLO) assay), 240 µM on human DGKζ (liposome (LIPGLO) assay) and 3.1 µM in assay [1]. In the assay with Human venous whole blood (setting [3]), the EC50 came out at 10 µM.

Consider `Cn1c(=O)cc(N2CCN(C(c3ccc(F)cc3)c3ccc(F)cc3)CC2c2ccccc2)c2nc(C#N)ccc21` (single isomer, unassigned) [Example 156, 8-(4-(bis(4-fluorophenyl)methyl)-2-phenylpiperazin-1-yl)-5-methyl-6-oxo-5,6-dihydro-1,5-naphthyridine-2-carbonitrile], for which the IC50 was 8.5 µM on human DGKα (liposome (LIPGLO) assay), 9.8 µM at human DGKζ (liposome (LIPGLO) assay) and 0.4 µM in assay [1]. The EC50 in the assay with Human venous whole blood (setting [2]) was 6.9 µM.

As to `CC(C)C(C)(O)C1CN(c2cc(=O)n(C)c3ccc(C#N)nc23)CCN1C(c1ccc(F)cc1)c1ccc(F)cc1` (single isomer, unassigned) [Example 89, 8-(4-(bis(4-fluorophenyl)methyl)-3-(2-hydroxy-3-methylbutan-2-yl)piperazin-1-yl)-5-methyl-6-oxo-5,6-dihydro-1,5-naphthyridine-2-carbonitrile], the IC50 on human DGKα (liposome (LIPGLO) assay) was determined as 240 µM; at human DGKζ (liposome (LIPGLO) assay) it was 77 µM; in assay [1], 2.6 µM. For the same compound, the EC50 with Human venous whole blood (setting [2]) was determined as 20 µM.

As for `COC(=O)C1CN(c2c(F)c(=O)n(C)c3ccc(C#N)nc23)CCN1C(c1ccc(F)cc1)c1ccc(F)cc1` (single isomer, unassigned) [Example 74, Methyl 1-(bis(4-fluorophenyl)methyl)-4-(6-cyano-3-fluoro-1-methyl-2-oxo-1,2-dihydro-1,5-naphthyridin-4-yl)piperazine-2-carboxylate], the figures for the IC50 (on human DGKα (liposome (LIPGLO) assay); at human DGKζ (liposome (LIPGLO) assay); in assay [1]) were 23 µM, 8.6 µM and 0.29 µM, respectively. Further, the concentration for a half-maximal effect (EC50) in the assay with Human venous whole blood (setting [3]) worked out at 8.6 µM.

As for `Cc1ccc(C(C)N2CCN(c3c(C#N)c(=O)n(C)c4ccc(C#N)nc34)C[C@H]2C)cc1` (single isomer, unassigned) [Example 952], the IC50 was found to be 0.59 µM on human DGKα (DGKα liposome (LIPGLO) assay); 2.3 µM on human DGKζ (DGKζ liposome (LIPGLO) assay); 5.9 µM in assay [1] (murine CTL, IFN-γ). Moreover, the EC50 in the assay with Human venous whole blood (setting [4]) came to 3 µM.

On to `CC(C)C(=O)C1CN(c2cc(=O)n(C)c3ccc(C#N)nc23)CCN1C(c1ccc(F)cc1)c1ccc(F)cc1` (single isomer, unassigned) [Example 86, 8-(4-(bis(4-fluorophenyl)methyl)-3-isobutyrylpiperazin-1-yl)-5-methyl-6-oxo-5,6-dihydro-1,5-naphthyridine-2-carbonitrile], for which the IC50 at human DGKα (liposome (LIPGLO) assay) came to 7.4 µM; on human DGKζ (liposome (LIPGLO) assay) it was 1.2 µM; in assay [1], 0.2 µM. In addition, the EC50 in the assay on Human venous whole blood (setting [3]) came to 2.9 µM.

As to `Cc1ccc(C(c2ccc(F)cc2)N2C[C@H](C)N(c3cc(=O)n(C)c4ccc(C#N)nc34)C[C@H]2C)cc1` (single isomer, unassigned) [Example 251], the IC50 came out at 0.67 µM on human DGKα (liposome (LIPGLO) assay); 0.32 µM on human DGKζ (liposome (LIPGLO) assay); 0.032 µM in assay [1] (Mus musculus, MC-38). Moreover, the 50% effective concentration (EC50) in the assay with Human venous whole blood (setting [3]) is 0.44 µM.

For `COc1cc(F)ccc1C(c1ccc(F)cc1)N1C[C@H](C)N(c2c(C#N)c(=O)n(C)c3ccc(C#N)nc23)C[C@H]1C` (single isomer, unassigned) [Example 112], the IC50 on human DGKα (liposome (LIPGLO) assay) is 77 µM; on human DGKζ (liposome (LIPGLO) assay) it was 2.6 µM; in assay [1] (Mus musculus, MC-38) it was 1.6 µM. For the same compound, the EC50 in the assay on Human venous whole blood (setting [3]) was 7 µM.

In the case of `C[C@@H]1CN(c2c(C#N)c(=O)n(C)c3ccc(C#N)nc23)CCN1Cc1c(F)cc(F)cc1F` [Example 986], the IC50 was found to be 4.2 µM on human DGKα (DGKα liposome (LIPGLO) assay), 2.6 µM at human DGKζ (DGKζ liposome (LIPGLO) assay) and 3.7 µM in assay [1] (setting [5]). In addition, the concentration for a half-maximal effect (EC50) in the assay on Human venous whole blood (setting [4]) was determined as 20 µM.

For the compound `Cc1nnc(C2CN(c3cc(=O)n(C)c4ccc(C#N)nc34)CCN2C(c2ccc(F)cc2)c2ccc(F)cc2)o1` (centres unmarked) [Example 126, 8-(4-(bis(4-fluorophenyl)methyl)-3-(5-methyl-1,3,4-oxadiazol-2-yl)piperazin-1-yl)-5-methyl-6-oxo-5,6-dihydro-1,5-naphthyridine-2-carbonitrile], the IC50 at human DGKα (liposome (LIPGLO) assay) is 230 µM; at human DGKζ (liposome (LIPGLO) assay), 31 µM; in assay [1] (Mus musculus, MC-38), 10 µM. Also, the EC50 in the assay with Human venous whole blood (setting [3]) stood at 20 µM.

As to `C[C@@H]1CN(c2c(Cl)c(=O)n(C)c3ccc(C#N)nc23)CCN1C(c1ccc(Cl)cc1)c1ccc(Cl)cc1` [Example 105, (R)-8-(4-(bis(4-chlorophenyl)methyl)-3-methylpiperazin-1-yl)-7-chloro-5-methyl-6-oxo-5,6-dihydro-1,5-naphthyridine-2-carbonitrile, dimethylformamide], the IC50 at human DGKα (liposome (LIPGLO) assay) worked out at 1.4 µM; at human DGKζ (liposome (LIPGLO) assay), 0.82 µM; in assay [1] (Mus musculus, MC-38) it was 0.074 µM. Also, the EC50 with Human venous whole blood (setting [3]) stood at 4.3 µM.

In the case of `C[C@@H]1CN(c2c(C#N)c(=O)n(C)c3ccc(C#N)nc23)CCN1Cc1ccc(F)cc1F` [Example 985], the IC50 at human DGKα (DGKα liposome (LIPGLO) assay) was found to be 2.2 µM; at human DGKζ (DGKζ liposome (LIPGLO) assay), 3 µM; in assay [1] (setting [5]) it was 4.1 µM. The half-maximal effective concentration (EC50) with Human venous whole blood (setting [4]) turned out to be 9.7 µM.
